Columns and labels:
GCN2 kinase = GCN2 kinase (Homo sapiens, UniProt Q9P2K8); assay: GCN2 enzyme inhibition assay (Transcreener ADP2 fluorescence polarization); assay type: biochemical; conditions: compounds of Formula II; 280 μM ATP, 4 nM GCN2 kinase
How it was run: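 ADP formation read by Transcreener FP after a 1 h, 25 °C kinase reaction containing 280 μM ATP, 200 μM (RS)7 substrate and 4 nM GCN2, pH 7.5 Tris buffer. Compounds (0–8 μM final) were added 10 min before ATP. Percent inhibition gave IC50 and apparent Ki via tight-binding fit.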

[1] = target: intracellular GCN2 (phosphorylation of the GCN2 substrate eIF2α) (Homo sapiens, UniProt Q9P2K8); assay: GCN2 cellular inhibition assay (AlphaScreen SureFire P-eIF2α Ser51, borrelidin-treated U2OS cells); assay type: cell-based; conditions: compounds of Formula II; biomarker assay, phosphorylated eIF2α Ser51 in borrelidin-treated U2OS cells
How it was run: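 Phospho-eIF2α (Ser51) in lysates was quantified by AlphaScreen SureFire after a 1 h, 37 °C treatment of U2OS cells with 10 μM borrelidin and compound at 4-fold dilutions starting from 40 μM final. Inhibition expressed in percent against wells stimulated by borrelidin alone.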

Chain of intracellular GCN2 (phosphorylation of the GCN2 substrate eIF2α) (Q9P2K8 whole entry): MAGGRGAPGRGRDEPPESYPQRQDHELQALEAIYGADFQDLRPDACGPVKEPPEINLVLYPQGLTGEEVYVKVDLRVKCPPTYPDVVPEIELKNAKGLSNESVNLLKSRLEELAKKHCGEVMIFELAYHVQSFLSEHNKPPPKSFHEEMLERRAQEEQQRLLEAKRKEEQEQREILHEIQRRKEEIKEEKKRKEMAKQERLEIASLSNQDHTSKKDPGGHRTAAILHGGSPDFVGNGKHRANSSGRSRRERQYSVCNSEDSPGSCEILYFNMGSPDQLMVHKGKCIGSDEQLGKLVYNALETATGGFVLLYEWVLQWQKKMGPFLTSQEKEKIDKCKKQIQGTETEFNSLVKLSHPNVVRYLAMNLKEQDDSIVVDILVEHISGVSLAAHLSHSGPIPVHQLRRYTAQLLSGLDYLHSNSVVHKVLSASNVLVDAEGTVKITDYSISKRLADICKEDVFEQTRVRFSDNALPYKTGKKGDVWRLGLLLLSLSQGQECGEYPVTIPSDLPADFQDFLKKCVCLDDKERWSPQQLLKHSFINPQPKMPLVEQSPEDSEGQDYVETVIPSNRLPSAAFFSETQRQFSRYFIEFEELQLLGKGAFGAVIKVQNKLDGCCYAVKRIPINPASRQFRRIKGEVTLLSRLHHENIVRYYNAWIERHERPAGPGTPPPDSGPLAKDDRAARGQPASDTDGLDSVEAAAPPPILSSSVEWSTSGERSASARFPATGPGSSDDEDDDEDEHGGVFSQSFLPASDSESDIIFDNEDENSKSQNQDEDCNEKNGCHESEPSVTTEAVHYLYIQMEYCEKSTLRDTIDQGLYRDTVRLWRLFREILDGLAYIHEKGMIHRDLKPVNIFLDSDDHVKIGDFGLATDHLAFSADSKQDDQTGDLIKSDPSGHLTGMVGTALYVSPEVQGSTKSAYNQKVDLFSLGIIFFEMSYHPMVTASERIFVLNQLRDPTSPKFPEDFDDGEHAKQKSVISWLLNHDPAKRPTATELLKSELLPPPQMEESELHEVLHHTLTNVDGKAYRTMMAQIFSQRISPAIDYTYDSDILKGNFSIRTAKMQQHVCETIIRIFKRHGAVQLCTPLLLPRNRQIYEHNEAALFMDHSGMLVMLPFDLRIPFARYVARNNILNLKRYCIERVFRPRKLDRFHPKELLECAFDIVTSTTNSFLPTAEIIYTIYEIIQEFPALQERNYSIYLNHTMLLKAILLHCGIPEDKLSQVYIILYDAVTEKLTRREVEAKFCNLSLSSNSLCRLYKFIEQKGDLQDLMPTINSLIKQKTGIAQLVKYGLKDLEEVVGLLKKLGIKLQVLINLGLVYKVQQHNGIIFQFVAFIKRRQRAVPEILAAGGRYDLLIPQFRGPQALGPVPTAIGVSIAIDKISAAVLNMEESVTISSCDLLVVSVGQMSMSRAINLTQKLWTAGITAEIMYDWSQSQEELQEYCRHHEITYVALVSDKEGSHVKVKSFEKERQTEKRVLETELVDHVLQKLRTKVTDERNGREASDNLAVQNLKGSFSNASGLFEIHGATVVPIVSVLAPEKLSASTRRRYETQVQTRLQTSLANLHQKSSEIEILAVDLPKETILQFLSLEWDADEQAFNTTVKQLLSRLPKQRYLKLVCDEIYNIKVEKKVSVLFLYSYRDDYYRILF
Chain of GCN2 kinase (Q9P2K8 whole entry): as above

Row | Structure (SMILES) | Ki (GCN2 kinase) | IC50 [1]
1 | C[C@H]1CO[C@@H](CNS(C)(=O)=O)CN1c1cc(-c2cnc3ccc(C(F)F)nn23)ncn1 [II-234, N-(((2R,5S)-4-(6-(6-(difluoromethyl)imidazo[1,2-b]pyridazin-3-yl)pyrimidin-4-yl)-5-methylmorpholin-2-yl)methyl)methanesulfonamide] | 10 to 1000 nM | 500 to 5000 nM
2 | CN(CC1CC(O)CN(c2cc(-c3cnc4ccc(C(F)F)nn34)ncn2)C1)S(C)(=O)=O (stereo not drawn) [II-235, N-((1-(6-(6-(Difluoromethyl)imidazo[1,2-b]pyridazin-3-yl)pyrimidin-4-yl)-5-hydroxypiperidin-3-yl)methyl)-N-methylmethanesulfonamide] | 10 to 1000 nM | 500 to 5000 nM
3 | CC1CN(c2cc(-c3cnc4ccc(C(F)F)nn34)ncn2)CC1CNS(C)(=O)=O (stereo not drawn) [II-238, N-((1-(6-(6-(Difluoromethyl)imidazo[1,2-b]pyridazin-3-yl)pyrimidin-4-yl)-4-methylpyrrolidin-3-yl)methyl)methanesulfonamide] | 10 to 1000 nM | 500 to 5000 nM
4 | CC1C(CNS(C)(=O)=O)CCN1c1cc(-c2cnc3ccc(C(F)F)nn23)ncn1 (stereo not drawn) [II-243, N-((1-(6-(6-(Difluoromethyl)imidazo[1,2-b]pyridazin-3-yl)pyrimidin-4-yl)-2-methylpyrrolidin-3-yl)methyl)methanesulfonamide] | 10 to 1000 nM | 500 to 5000 nM
5 | CC1C(CNS(C)(=O)=O)CCN1c1cc(-c2cnc3ccc(C(F)F)nn23)ncn1 (stereo not drawn) [II-244, N-((1-(6-(6-(Difluoromethyl)imidazo[1,2-b]pyridazin-3-yl)pyrimidin-4-yl)-2-methylpyrrolidin-3-yl)methyl)methanesulfonamide] | 10 to 1000 nM | > 5000 nM
6 | CC1CCC(CNS(C)(=O)=O)CN1c1cc(-c2cnc3ccc(C(F)F)nn23)ncn1 (stereo not drawn) [II-245, N-((1-(6-(6-(Difluoromethyl)imidazo[1,2-b]pyridazin-3-yl)pyrimidin-4-yl)-6-methylpiperidin-3-yl)methyl)methanesulfonamide] | 10 to 1000 nM | > 5000 nM
7 | CC1CCC(CNS(C)(=O)=O)CN1c1cc(-c2cnc3ccc(C(F)F)nn23)ncn1 (stereo not drawn) [II-246, N-((1-(6-(6-(Difluoromethyl)imidazo[1,2-b]pyridazin-3-yl)pyrimidin-4-yl)-6-methylpiperidin-3-yl)methyl)methanesulfonamide] | 10 to 1000 nM | > 5000 nM
8 | CC1CCC(CNS(C)(=O)=O)CN1c1cc(-c2cnc3ccc(C(F)F)nn23)ncn1 (stereo not drawn) [II-248, N-((1-(6-(6-(Difluoromethyl)imidazo[1,2-b]pyridazin-3-yl)pyrimidin-4-yl)-6-methylpiperidin-3-yl)methyl)methanesulfonamide] | 10 to 1000 nM | 500 to 5000 nM
9 | CS(=O)(=O)NC[C@@H]1CN(c2cc(-c3cnc4ccc(C5CC5)nn34)ncn2)CCO1 [II-249, (S)—N-((4-(6-(6-Cyclopropylimidazo[1,2-b]pyridazin-3-yl)pyrimidin-4-yl)morpholin-2-yl)methyl)methanesulfonamide] | 10 to 1000 nM | 500 to 5000 nM
10 | CS(=O)(=O)N1CCC(c2cc(-c3cnc4ccc(C(F)F)nn34)ncn2)C1 (stereo not drawn) [II-250, 6-(Difluoromethyl)-3-(6-(1-(methylsulfonyl)pyrrolidin-3-yl)pyrimidin-4-yl)imidazo[1,2-b]pyridazine] | 10 to 1000 nM | > 5000 nM
11 | FC(F)c1ccc2ncc(-c3cc(N4CCOCC4)ncn3)n2n1 [II-251, 4-(6-(6-(Difluoromethyl)imidazo[1,2-b]pyridazin-3-yl)pyrimidin-4-yl)morpholine] | 10 to 1000 nM | > 5000 nM
12 | FC(F)c1ccc2ncc(-c3cc(N4CC5(COC5)C4)ncn3)n2n1 [II-252, 6-(6-(6-(Difluoromethyl)imidazo[1,2-b]pyridazin-3-yl)pyrimidin-4-yl)-2-oxa-6-azaspiro[3.3]heptane] | 10 to 1000 nM | > 5000 nM
13 | CC(=O)N1CCC(c2cc(-c3cnc4ccc(C(F)F)nn34)ncn2)C1 (stereo not drawn) [II-253, 1-(3-(6-(6-(Difluoromethyl)imidazo[1,2-b]pyridazin-3-yl)pyrimidin-4-yl)pyrrolidin-1-yl)ethan-1-one] | 10 to 1000 nM | > 5000 nM
14 | O=C(NCCO)N1CCC(c2cc(-c3cnc4ccc(C(F)F)nn34)ncn2)C1 (stereo not drawn) [II-254, 3-(6-(6-(Difluoromethyl)imidazo[1,2-b]pyridazin-3-yl)pyrimidin-4-yl)-N-(2-hydroxyethyl)pyrrolidine-1-carboxamide] | 10 to 1000 nM | > 5000 nM
15 | CS(=O)(=O)CCN1CCC(c2cc(-c3cnc4ccc(C(F)F)nn34)ncn2)C1 (stereo not drawn) [II-255, 6-(Difluoromethyl)-3-(6-(1-(2-(methylsulfonyl)ethyl)pyrrolidin-3-yl)pyrimidin-4-yl)imidazo[1,2-b]pyridazine] | 10 to 1000 nM | > 5000 nM
16 | CS(=O)(=O)N1CCC2(CCCCN2c2cc(-c3cnc4ccc(C(F)F)nn34)ncn2)C1 (stereo not drawn) [II-256, 6-(6-(6-(Difluoromethyl)imidazo[1,2-b]pyridazin-3-yl)pyrimidin-4-yl)-2-(methylsulfonyl)-2,6-diazaspiro[4.5]decane] | 10 to 1000 nM | > 5000 nM
17 | CC1(C)CN(c2cc(-c3cnc4ccc(C(F)F)nn34)ncn2)C[C@H](CNS(C)(=O)=O)O1 [II-257, (R)—N-((4-(6-(6-(Difluoromethyl)imidazo[1,2-b]pyridazin-3-yl)pyrimidin-4-yl)-6,6-dimethylmorpholin-2-yl)methyl)methanesulfonamide] | 10 to 1000 nM | 500 to 5000 nM

The remaining lines, values ahead:

Row | Ki (GCN2 kinase) | IC50 [1] | Structure (SMILES)
18 | 10 to 1000 nM | > 5000 nM | CC(=O)N1CCN(c2cc(-c3cnc4ccc(C(F)(F)F)nn34)ccn2)CC1 [II-223, 1-(4-(4-(6-(Trifluoromethyl)imidazo[1,2-b]pyridazin-3-yl)pyridin-2-yl)piperazin-1-yl)ethanone]
19 | 10 to 1000 nM | 500 to 5000 nM | CS(=O)(=O)NC[C@@H]1CN(c2cc(-c3cnc4ccc(C(F)(F)F)nn34)ccn2)CCO1 [II-224, (S)—N-((4-(4-(6-(Trifluoromethyl)imidazo[1,2-b]pyridazin-3-yl)pyridin-2-yl)morpholin-2-yl)methyl)methanesulfonamide]
20 | < 10 nM | < 500 nM | FC(F)(F)c1ccc2ncc(-c3ccnc(N4CCOC(c5cn[nH]c5)C4)c3)n2n1 (stereo not drawn) [II-225, 2-(1H-Pyrazol-4-yl)-4-(4-(6-(trifluoromethyl)imidazo[1,2-b]pyridazin-3-yl)pyridin-2-yl)morpholine]
21 | 10 to 1000 nM | 500 to 5000 nM | O=C1OC2(CC2)[C@@H]2CN(c3cc(-c4cnc5ccc(C(F)(F)F)nn45)ccn3)CCN12 [II-226, (S)-7′-(4-(6-(Trifluoromethyl)imidazo[1,2-b]pyridazin-3-yl)pyridin-2-yl)tetrahydrospiro[cyclopropane-1,1′-oxazolo[3,4-a]pyrazin]-3′(5′H)-one]
22 | 10 to 1000 nM | > 5000 nM | CS(=O)(=O)CC1CCCN(c2cc(-c3cnc4ccc(C(F)(F)F)nn34)ccn2)C1 (stereo not drawn) [II-227, 3-(2-(3-((Methylsulfonyl)methyl)piperidin-1-yl)pyridin-4-yl)-6-(trifluoromethyl)imidazo[1,2-b]pyridazine]
23 | 10 to 1000 nM | > 5000 nM | CS(=O)(=O)C1CCCN(c2cc(-c3cnc4ccc(C(F)(F)F)nn34)ccn2)C1 (stereo not drawn) [II-228, 3-(2-(3-(Methylsulfonyl)piperidin-1-yl)pyridin-4-yl)-6-(trifluoromethyl)imidazo[1,2-b]pyridazine]
24 | 10 to 1000 nM | 500 to 5000 nM | CS(=O)(=O)NC1CCCN(c2cc(-c3cnc4ccc(C(F)(F)F)nn34)ccn2)C1 (stereo not drawn) [II-231, N-(1-(4-(6-(Trifluoromethyl)imidazo[1,2-b]pyridazin-3-yl)pyridin-2-yl)piperidin-3-yl)methanesulfonamide]
25 | 10 to 1000 nM | 500 to 5000 nM | CS(=O)(=O)NCC1COCCN(c2cc(-c3cnc4ccc(C(F)(F)F)nn34)ccn2)C1 (stereo not drawn) [II-232, N-((4-(4-(6-(Trifluoromethyl)imidazo[1,2-b]pyridazin-3-yl)pyridin-2-yl)-1,4-oxazepan-6-yl)methyl)methanesulfonamide]
26 | < 10 nM | 500 to 5000 nM | C[C@H]1CN(c2cc(-c3cnc4ccc(C(F)F)nn34)ncn2)C[C@@H]1CNS(C)(=O)=O [II-237, N-(((3R,4R)-1-(6-(6-(Difluoromethyl)imidazo[1,2-b]pyridazin-3-yl)pyrimidin-4-yl)-4-methylpyrrolidin-3-yl)methyl)methanesulfonamide]
27 | < 10 nM | 500 to 5000 nM | CC1(O)CCN(c2cc(-c3cnc4ccc(C(F)F)nn34)ncn2)CC1CNS(C)(=O)=O (stereo not drawn) [II-239, N-((1-(6-(6-(Difluoromethyl)imidazo[1,2-b]pyridazin-3-yl)pyrimidin-4-yl)-4-hydroxy-4-methylpiperidin-3-yl)methyl)methanesulfonamide]
28 | < 10 nM | < 500 nM | CC1(O)CCN(c2cc(-c3cnc4ccc(C(F)F)nn34)ncn2)CC1CNS(C)(=O)=O (stereo not drawn) [II-240, N-((1-(6-(6-(Difluoromethyl)imidazo[1,2-b]pyridazin-3-yl)pyrimidin-4-yl)-4-hydroxy-4-methylpiperidin-3-yl)methyl)methanesulfonamide]
29 | < 10 nM | < 500 nM | C[C@@H]1CC[C@H](CNS(C)(=O)=O)CN1c1cc(-c2cnc3ccc(C(F)F)nn23)ncn1 [II-247, N-(((3S,6R)-1-(6-(6-(Difluoromethyl)imidazo[1,2-b]pyridazin-3-yl)pyrimidin-4-yl)-6-methylpiperidin-3-yl)methyl)methanesulfonamide]
30 | < 10 nM | < 500 nM | CS(=O)(=O)NCC1CN(c2cc(-c3cnc4ccc(C(F)F)nn34)ncn2)CC(F)(F)C1 (stereo not drawn) [II-258, N-((1-(6-(6-(Difluoromethyl)imidazo[1,2-b]pyridazin-3-yl)pyrimidin-4-yl)-5,5-difluoropiperidin-3-yl)methyl)methanesulfonamide]

Source: US10988477B2 (Merck Patent GmbH, priority 2018, dated 2021)
